Laboratory results: patent publication US12491170B2, “Stable treprostinil prodrugs” (United Therapeutics Corporation, priority 2020, dated 2025)

Assays:
[1] = Hydrolysis of prodrugs to treprostinil at pH 6, 7, 8 and 40 C; assay type: physicochemical
Description: Tables 24, 25 and 26 present data for hydrolysis of selected treprostinil prodrugs at pH 6, 7 and 8, respectively, and 40 C.

[2] = Stability in liver microsomes, rat; details: Liver Microsomes, Rat
Method: (§1) Mixed-gender human liver microsomes, male Sprague-Dawley rat liver microsomes, and male Beagle dog liver microsomes were purchased from XenoTech. The reaction mixture, minus NADPH, was prepared as described below. […] An aliquot of the reaction mixture (without cofactor) was equilibrated in a shaking water bath at 37° C. for 5 minutes. The reaction was initiated by the addition of cofactor, and the mixture was incubated in a shaking water bath at 37° C. Aliquots (200 μL) were withdrawn at 0, 10, 20, 30, and 60 minutes. Test article samples were immediately combined with 400 μL of ice-cold acetonitrile (ACN) to terminate the reaction. […] The samples were then mixed and centrifuged to precipitate proteins. Aliquots of the supernatant were removed, diluted 1:1 into distilled water containing internal standard, and analyzed by LC-MS/MS against calibration standards prepared in a matched matrix. All samples were analyzed for the dosed prodrugs as well as the drug, treprostinil. The test article concentration was compared to the concentration at time 0 to determine the percent of test article remaining at each time point. Half-lives and clearance were calculated using GraphPad software, fitting to a single-phase exponential decay equation.
(§2) • Liver Microsomes 0.5 mg/mL • NADPH (cofactor) 1 mM • Potassium Phosphate, pH 7.4 100 mM • Magnesium Chloride 5 mM • Test Article 1 μM

[3] = Stability in cryopreserved hepatocytes, human; details: Hepatocytes, Human
Method: (§3) Mixed-gender human cryopreserved hepatocytes, male Sprague-Dawley rat cryopreserved hepatocytes, and male Beagle dog cryopreserved hepatocytes were purchased from XenoTech. The hepatocytes were thawed and prepared according to the vendor's instructions, pooled into Krebs Henseleit buffer (KHB, pH 7.4), and kept on ice prior to the experiments. […] The final DMSO content in the incubation mixture was ≤0.1%. […] Aliquots of the test article were withdrawn (n=1) at 0, 15, 30, 60, and 120 minutes. […] Aliquots of 7-HC were withdrawn (n=1) at 0 and 15 minutes. The reaction was immediately terminated by adding two volumes of ice-cold acetonitrile (ACN) to the test article samples and three volumes of ACN containing internal standard to the positive control samples. The samples were then mixed and centrifuged to precipitate proteins. An aliquot of the supernatant was then diluted with water and analyzed by LC-MS/MS against calibration standards prepared in a matched matrix. […] All test article samples were analyzed for the dosed prodrugs as well as the drug, treprostinil. The test article concentration was compared to the concentration at time 0 to determine the percent of test article remaining at each time point. Half-lives and clearance values were calculated using GraphPad software, fitting to a single-phase exponential decay equation.

[4] = Stability in human subcutaneous skin homogenate; details: Skin Homogenate, Human
Method: The pool of skin homogenate was prepared by combining equal volumes of three lots that were tested in the initial skin homogenate lot assessment experiments.
A stock solution of calcein-AM was first prepared at 5 mM in DMSO, followed by a serial dilution into methanol at a concentration of 100 μM. 495 μL of skin homogenate was thawed and warmed to 37° C. A 5 μL aliquot of the 100 μM calcein-AM solution was spiked into the skin homogenate, for a final calcein-AM dosing concentration of 1 μM. After briefly mixing, 150 μL aliquots were removed in triplicate and transferred to 96-well Falcon plates. The plates were placed onto a Thermomixer and maintained at 37° C., with gentle shaking for the duration of the experiment. At each time point (0, 15, 30, 60, and 120 minutes), the plate was removed from the Thermomixer and transferred to a FLUOstar® plate reader, and the formation of calcein (Sigma) was monitored by fluorescence (490/515 nm). Calibration standards of calcein were prepared in distilled water by serial dilutions of a calcein DMSO stock at final concentrations ranging from 1 μM to 1 nM. All samples and standards were read concurrently (Table 13).
For each of the test articles, 495 μL of skin homogenate was added to triplicate centrifuge tubes. To each tube, 5 μL of a 100 μM solution of test article was added, for a final test article dosing concentration of 1 μM. The tubes were placed onto a Thermomixer and maintained at 37° C. with gentle shaking for the duration of the experiment. At each time point (0, 30, 60, and 120 minutes), a 100 μL aliquot was removed from each tube and combined with 200 μL of acetonitrile to stop the stability reaction. The tubes were mixed and centrifuged at 3000 rpm for 10 minutes. Aliquots of supernatant were removed and diluted 1:1 with distilled water containing internal standard (2 μM treprostinil-d4). Calibration standards for the treprostinil analysis were prepared for each test article in a surrogate matrix (supernatant from a mixture of 1:2 human plasma:acetonitrile), at concentrations ranging from 1 μM to 1 nM. Calibration standards were also diluted 1:1 with distilled water containing internal standard. The disappearance of each individual test article was monitored, as well as the formation of treprostinil (Table 14 and Table 15).

[5] = Stability in liver microsomes, human; details: Liver Microsomes, Human
Method: as §1, §2

[6] = Stability in cryopreserved hepatocytes, rat; details: Hepatocytes, Rat
Method: as §3

[7] = Stability in cryopreserved hepatocytes, dog; details: Hepatocytes, Dog
Method: as §3

[8] = Stability in liver microsomes, dog; details: Liver Microsomes, Dog
Method: as §1, §2

[9] = AUC of treprostinil concentration 0-120 min
[10] = treprostinil formed from test article dosed, 0 min
[11] = treprostinil formed from test article dosed, 15 min
[12] = treprostinil formed from test article dosed, 30 min
[13] = treprostinil formed from test article dosed, 60 min
[14] = treprostinil formed from test article dosed, 120 min

CCCCCC(CCC1C(O)CC2Cc3c(cccc3OCC(=O)O)CC21)OC(=O)c1ccc(O)cc1 (centres unmarked) [Prodrug LXVIII]
Hydrolysis to treprostinil, % Area, t = 1 week ([1]; pH 6, 40 C.): 0.00 % Area
Hydrolysis to treprostinil, % Area, t = 2 weeks ([1]; pH 6, 40 C.): 0.00 % Area
Hydrolysis to treprostinil, % Area, t = 3 weeks ([1]; pH 6, 40 C.): 0.00 % Area
Hydrolysis to treprostinil, % Area, t = 1 week ([1]; pH 7, 40 C.): 0.00 % Area
Hydrolysis to treprostinil, % Area, t = 2 weeks ([1]; pH 7, 40 C.): 0.00 % Area
Hydrolysis to treprostinil, % Area, t = 3 weeks ([1]; pH 7, 40 C.): 0.00 % Area
Hydrolysis to treprostinil, % Area, t = 1 week ([1]; pH 8, 40 C.): 0.00 % Area
Hydrolysis to treprostinil, % Area, t = 2 weeks ([1]; pH 8, 40 C.): 0.00 % Area
Hydrolysis to treprostinil, % Area, t = 3 weeks ([1]; pH 8, 40 C.): 0.00 % Area

CCCCCC(CCC1C(O)CC2Cc3c(cccc3OCC(=O)O)CC21)OC(=O)c1ccc(O)c(O)c1 (centres unmarked) [Prodrug LXVI]
Hydrolysis to treprostinil, % Area, t = 1 week ([1]; pH 6, 40 C.): 0.47 % Area
Hydrolysis to treprostinil, % Area, t = 2 weeks ([1]; pH 6, 40 C.): 1.2 % Area
Hydrolysis to treprostinil, % Area, t = 3 weeks ([1]; pH 6, 40 C.): 1.9 % Area
Hydrolysis to treprostinil, % Area, t = 1 week ([1]; pH 7, 40 C.): 0.05 % Area
Hydrolysis to treprostinil, % Area, t = 2 weeks ([1]; pH 7, 40 C.): 1.0 % Area
Hydrolysis to treprostinil, % Area, t = 3 weeks ([1]; pH 7, 40 C.): 1.5 % Area
Hydrolysis to treprostinil, % Area, t = 1 week ([1]; pH 8, 40 C.): 0.73 % Area
Hydrolysis to treprostinil, % Area, t = 2 weeks ([1]; pH 8, 40 C.): 1.6 % Area
Hydrolysis to treprostinil, % Area, t = 3 weeks ([1]; pH 8, 40 C.): 2.6 % Area

CCCCCC(CCC1C(O)CC2Cc3cccc(OCC(=O)O)c3CC21)OC(=O)CCC(=O)N1CCN(C)CC1 (centres unmarked) [XXXIV]
Trep Concentration 0 min ([2]; 0 min): 0 µM
Trep Concentration 10 min ([2]; 10 min): 0 µM
Trep Concentration 20 min ([2]; 20 min): 0.0132 µM
Trep Concentration 30 min ([2]; 30 min): 0.0158 µM
Trep Concentration 60 min ([2]; 60 min): 0.0224 µM
AUC ([2]; treprostinil 0-60 min): 0.78 µmol·min/L
AUC [3, 9]: 1.90 µmol·min/L
Trep Concentration (μM) 0 min [3, 10]: 0 µM
Trep Concentration (μM) 15 min [3, 11]: 0 µM
Trep Concentration (μM) 30 min [3, 12]: 0.0107 µM
Trep Concentration (μM) 60 min [3, 13]: 0.0174 µM
Trep Concentration (μM) 120 min [3, 14]: 0.0293 µM
Trep Concentration 0 min ([4]; 0 min): 0 µM
Trep Concentration 30 min ([4]; 30 min): 0 µM
Trep Concentration 60 min ([4]; 60 min): 0 µM
Trep Concentration 120 min ([4]; 120 min): 0 µM
AUC ([4]; treprostinil 0-120 min): 0.00 µmol·min/L
Trep Concentration 0 min ([5]; 0 min): 0 µM
Trep Concentration 10 min ([5]; 10 min): 0 µM
Trep Concentration 20 min ([5]; 20 min): 0 µM
Trep Concentration 30 min ([5]; 30 min): 0 µM
Trep Concentration 60 min ([5]; 60 min): 0 µM
AUC ([5]; treprostinil 0-60 min): 0.00 µmol·min/L
AUC [6, 9]: 8.62 µmol·min/L
Trep Concentration (μM) 0 min [6, 10]: 0 µM
Trep Concentration (μM) 15 min [6, 11]: 0.023 µM
Trep Concentration (μM) 30 min [6, 12]: 0.0447 µM
Trep Concentration (μM) 60 min [6, 13]: 0.0915 µM
Trep Concentration (μM) 120 min [6, 14]: 0.105 µM
AUC [7, 9]: 1.30 µmol·min/L
Trep Concentration (μM) 0 min [7, 10]: 0 µM
Trep Concentration (μM) 15 min [7, 11]: 0 µM
Trep Concentration (μM) 30 min [7, 12]: 0.0101 µM
Trep Concentration (μM) 60 min [7, 13]: 0.0153 µM
Trep Concentration (μM) 120 min [7, 14]: 0.0127 µM
Trep Concentration 0 min ([8]; 0 min): 0 µM
Trep Concentration 10 min ([8]; 10 min): 0 µM
Trep Concentration 20 min ([8]; 20 min): 0 µM
Trep Concentration 30 min ([8]; 30 min): 0 µM
Trep Concentration 60 min ([8]; 60 min): 0.0104 µM
AUC ([8]; treprostinil 0-60 min): 0.16 µmol·min/L
